Results reported in patent publication US20040072915A1, “Novel medicines based on sesquiterpene mixtures” (priority 2000, published 2004).

Tested on: MCF7 cells
Assay: Cell counts of MCF7 cells in culture with F, B or F+B (Example 1)
Format: cell-based
Method: Cells of line MCF7 are rapidly growing mammary adenocarcinoma cells. The doses tested in the study were 0.1.10^-3 and 0.5.10^-3 M. 1/100 dilutions were made in RPMT just before use and mixed to obtain a homogeneous emulsion at the moment of use. The mean number of cells inoculated was about 10^6 in each test. Test one: search for an effect on MCF7 cells at the dose of 0.5 mM. At the 11th transfer, the following were inoculated one bottle of MCF7 cells for growth, one bottle of MCF7 cells for the control, one bottle with the same number of calls +(F) at 0.5 mM, one bottle with the same number of cells +(F+B) at 0.5 mM, one bottle with the same number of cells +(B) at 0.5 mM. Bottles were placed in the incubator with caps unscrewed and the medium was changed every two days. On day 8, the cells were washed with 5 ml of PBS and freed from the substrate with PBS-EDTA, […] of RPMI+10% FCS and counted with a Malassez counting chamber. Test two: search of an effect on MCF7 cells at a dose of 0.1 mM. Same procedure as above is used but cells were used at the 12th transfer, using 0.1 mM doses of (F), (F+B) and (B).

[1] = test one, dose 0.5 mM, MCF7 cells counted on day 8, about 10^6 cells inoculated

| Structure (SMILES) | appearance of the culture bottle (adhering / floating dead cells) (test one, 0.5 mM, MCF7) | cell counts [1] | alteration of cell adherence in culture (test run at 0.1 mM, MCF7) | cell counts (test two (test at 0.1 mM), line printed as B at 0.5 mM) | appearance of the culture bottle (adhering / floating dead cells) (test two, 0.1 mM, MCF7) | cell counts (test two, dose 0.1 mM, MCF7 cells counted on day 8, about 10^6 cells inoculated) |
| --- | --- | --- | --- | --- | --- | --- |
| CC(C)=CCC[C@](C)(O)[C@@H]1CC=C(C)CC1 [B, α-bisabolol] | few adhering cells and a large numbers of floating (dead) cells | 250 · 10^3 | slight | 8930 · 10^3 | adhering homogeneous layer of cells with several dead cells |  |
| CC(C)=CCCC(C)=CCCC(C)=CCO [F, Farnesol] | few adhering cells and a large number of floating (dead) cells | 370 · 10^3 |  |  | few adhering cells and a large numbers of floating (dead) cells | 385 · 10^3 |
